Measurements from patent US12043602B2, “Fendiline derivatives” (The Board of Regents of the University of Texas System, priority 2019, dated 2024).

Experiments:
[1] = system: MDCK cells co-expressing GFP-K-RASG12V and mCherry-CAAX; assay: Cytotoxicity in mislocalization screen (death of all cells in well); details: drug caused death of all cells in well at 30 μM
mGFP-K-RASG12V = mGFP-K-RASG12V (Homo sapiens (Human), UniProt P01116, G12V); assay: K-Ras mislocalization assay (confocal microscopy, Manders coefficient); type: cell-based; design: key to Emax: Manders coefficient: fraction of mCherry-CAAX co-localizing with GFP-K-Ras; details: for IC50 / Emax / EC50: MDCK cells; for IC50: 48 h treatment, read-out: IC50 (μM), KRASG12V mislocalization; for Emax: maximal effect, Manders coefficient; for Emax / EC50: 48 h; for EC50: batch 4 compounds, title calls it IC50, read-out: EC50
Description: Madine Darby Canine Kidney epithelial cells (MDCK) stably co-expressing mGFP-tagged full length oncogenic mutant K-Ras (GFP—K-RASG12V) or mGFP-LactC2 (peptide probe for phosphatidylserine) and mCherry-tagged to the amino acids 179-189 of H-RasC181S, C184S (mCherry-CAAX, localizes primarily to endomembranes) were grown in DMEM-high glucose/sodium pyruvate/10% FBS. The medium was supplemented with 1× Penicillin/Streptomycin for fluorescence microscopy assays, to avoid any microbial contamination from the test compounds added. KLE and Hec50 cells were maintained in DMEM-F-12 medium supplemented with 10% FBS. Hec-1A and Hec-1B cells were grown in McCoy's 5a medium supplemented with 10% FBS. ESS-1 cells were grown in RPMI 1640 medium supplemented with 20% FBS. MPanc96 cells were grown in DMEM supplemented with 10% FBS, MiaPaCa-2 cells in DMEM supplemented with 10% FBS and 2.5% horse serum and all other cell lines were grown in RPMI 1640 supplemented with 10% FBS. All cancer cell media were supplemented with ×Penicillin/Streptomycin. All cell lines were grown at 37° C. with 5% CO2.
MDCK co-expressing GFP—K-RASG12V or LactC2 and mCherry-CAAX were grown on coverslips, treated with 0.1% vehicle (DMSO) or various concentrations of drugs for 48 h, and fixed with 4% paraformaldehyde. The coverslips were mounted in mowiol and imaged by confocal microscopy (Nikon A1) using a 60× objective. Using ImageJ software v1.42q, images were converted to 8-bit, and a threshold to a control pixel of each image was set. As a measure of K-Ras/LactC2 mislocalization, the fraction of mCherry-CAAX co-localizing with mGFP-K-RASG12V was calculated using a Manders coefficient plugin downloaded from Wright Cell Image Facility. The fraction of mCherry-CAAX co-localizing with mGFP-RASG12V (Mander's coefficient) is proportional to K-Ras mislocalization.

Compound	Cytotoxic at 30 μM [1]	IC50 (mGFP-K-RASG12V)	Emax (mGFP-K-RASG12V)	EC50 (mGFP-K-RASG12V)	Cytotoxic at 30 μM ([1]; listed as 11e)	Emax (mGFP-K-RASG12V; listed as 11e)	fold increase in KRAS mislocalization potency (mGFP-K-RASG12V; versus hit 7)
COc1ccc([C@@H](C)N(CC=C(c2ccccc2)c2ccccc2)CC(=O)O)cc1 [NY0229, (R)-2-((3,3-diphenylallyl)(1-(4-methoxyphenyl)ethyl)amino)acetic acid]	No	6.39 µM	0.522				
COc1ccc([C@@H](C)N(CC=C(c2ccccc2)c2ccccc2)C(=O)NC2CCCCC2)cc1 [NY0521, (R)-3-cyclohexyl-1-(3,3-diphenylallyl)-1-(1-(4-methoxyphenyl)ethyl)urea]	No		0.816				
COc1ccc([C@@H](C)N(CC=C(c2ccccc2)c2ccccc2)C(=O)C(C)F)cc1 (stereo partly drawn) [NY314, N-(3,3-diphenylallyl)-2-fluoro-N-((R)-1-(4-methoxyphenyl)ethyl)propanamide]	No	1.69 µM	0.842				
COc1ccc([C@@H](C)N(CC=C(c2ccccc2)c2ccccc2)CCN2CCN(C(=O)Nc3ccccc3)CC2)cc1 [NY352, (R)-4-(2-((3,3-diphenylallyl)(1-(4-methoxyphenyl)ethyl)amino)ethyl)-N-phenylpiperazine-1-carboxamide]	Yes	1.68 µM	0.920				
C[C@H](c1ccc(F)cc1)N(CC=C(c1ccccc1)c1ccccc1)CCn1cc(CN)nn1 [PW305, (R)-N-(2-(4-(aminomethyl)-1H-1,2,3-triazol-1-yl)ethyl)-N-(1-(4-fluorophenyl)ethyl)-3,3-diphenylprop-2-en-1-amine]	Yes	0.507 µM	0.609				
CN1CCN(C(=O)[C@H](NCC=C(c2ccccc2)c2ccccc2)c2ccccc2)CC1 [NY0557, (R)-2-((3,3-diphenylallyl)amino)-1-(4-methylpiperazin-1-yl)-2-phenylethan-1-one]	No		0.732				
COc1ccc([C@@H](C)N(CC=C(c2ccccc2)c2ccccc2)CCN2CCN(C(=O)Oc3ccccc3)CC2)cc1 [NY353, (R)-phenyl 4-(2-((3,3-diphenylallyl)(1-(4-methoxyphenyl)ethyl)amino)ethyl) piperazine-1-carboxylate]	No	3.26 µM	0.920				
COc1ccc([C@@H](C)N(CC=C(c2ccccc2)c2ccccc2)C(=O)CN2CCC(O)CC2)cc1 [PW126, (R)-N-(3,3-diphenylallyl)-2-(4-hydroxypiperidin-1-yl)-N-(1-(4-methoxyphenyl)ethyl)acetamide]	Yes	2.19 µM	0.412				
COC(=O)[C@@H](c1ccccc1)N(CC=C(c1ccccc1)c1ccccc1)CC=C(c1ccccc1)c1ccccc1 [NY055101, methyl (R)-2-(bis(3,3-diphenylallyl)amino)-2-phenylacetate]	Yes		0.424	8.91 µM			
C(CN[C@@H]1C[C@H]1c1ccccc1)=C(c1ccccc1)c1ccccc1 [NY022602, (1R,2S)-N-(3,3-diphenylallyl)-2-phenylcyclopropanamine]	No	0.16 µM	0.637				
COC(=O)CN(CC=C(c1ccccc1)c1ccccc1)[C@H](C)c1ccc(OC)cc1 [NY0228, (R)-methyl 2-((3,3-diphenylallyl)(1-(4-methoxyphenyl)ethyl)amino)acetate]	No		0.705				
C[C@@H](NCC(=O)N1c2ccccc2Sc2ccccc21)c1ccccc1 [NY0572, (R)-1-(10H-phenothiazin-10-yl)-2-((1-phenylethyl)amino)ethan-1-one]	No		0.565				
Nc1nccnc1C(=O)N(CC=C(c1ccccc1)c1ccccc1)CCN1CCCC1 [PW282, 3-amino-N-(3,3-diphenylallyl)-N-(2-(pyrrolidin-1-yl)ethyl)pyrazine-2-carboxamide]	No	12.5 µM	0.592				
CC(=O)NNC(=O)[C@H](NCC=C(c1ccccc1)c1ccccc1)c1ccccc1 [NY0568, (R)-N′-acetyl-2-((3,3-diphenylallyl)amino)-2-phenylacetohydrazide]	No		0.364				
COc1ccc([C@@H](C)N(CC=C(c2ccccc2)c2ccccc2)CCN2CCN(S(C)(=O)=O)CC2)cc1 [NY351, (R)-N-(1-(4-methoxyphenyl)ethyl)-N-(2-(4-(methylsulfonyl)piperazin-1-yl)ethyl)-3,3-diphenylprop-2-en-1-amine]	No	1.11 µM	0.851				
C#CCN(CC=C(c1ccccc1)c1ccccc1)[C@H](C)c1ccc(OC)cc1 [NY0234, (R)-N-(1-(4-methoxyphenyl)ethyl)-3,3-diphenyl-N-(prop-2-yn-1-yl)prop-2-en-1-amine]	No	21.9 µM	0.703				
COC(=O)[C@@H](c1ccccc1)N(CC=C(c1ccccc1)c1ccccc1)C(=O)NC(C)(C)C [NY0554, methyl (R)-2-(3-(tert-butyl)-1-(3,3-diphenylallyl)ureido)-2-phenylacetate]	Yes (even		0.327	1.2 µM			
C#CCN1CCN(CCN(CC=C(c2ccccc2)c2ccccc2)[C@H](C)c2ccc(OC)cc2)CC1 [NY356, (R)-N-(1-(4-methoxyphenyl)ethyl)-3,3-diphenyl-N-(2-(4-(prop-2-ynyl)piperazin-1-yl)ethyl)prop-2-en-1-amine]	No	4.19 µM	0.886				
O=C(c1cc2ccccn2n1)N(CC=C(c1ccccc1)c1ccccc1)CCN1CCCC1 [PW286, N-(3,3-diphenylallyl)-N-(2-(pyrrolidin-1-yl)ethyl)pyrazolo[1,5-a]pyridine-2-carboxamide]	No	6.63 µM	0.801				
COc1ccc([C@@H](C)N(CC=C(c2ccccc2)c2ccccc2)CCO)cc1 [NY0241, (R)-2-((3,3-diphenylallyl)(1-(4-methoxyphenyl)ethyl)amino)ethanol]	No	0.2 µM	0.72 ± 0.03		did not show any cytotoxic	0.72	2.5 fold
CCOC(CCCN(CC=C(c1ccccc1)c1ccccc1)[C@H](C)c1ccc(OC)cc1)OCC [NY348, (R)-N-(3,3-diphenylallyl)-4,4-diethoxy-N-(1-(4-methoxyphenyl)ethyl)butan-1-amine]	No	5.47 µM	0.963				
NC(=O)[C@H](NCC=C(c1ccccc1)c1ccccc1)c1ccccc1 [NY0569, (R)-2-((3,3-diphenylallyl)amino)-2-phenylacetamide]	No		0.321				
COc1ccc([C@@H](C)N(CC=C(c2ccccc2)c2ccccc2)CCCN2CCCC2)cc1 [NY0502, (R)-N-(1-(4-methoxyphenyl)ethyl)-3,3-diphenyl-N-(3-(pyrrolidin-1-yl)propyl)prop-2-en-1-amine]	Yes		0.878	1.78 µM			
O=C(c1ccc(F)cc1)N(CC=C(c1ccccc1)c1ccccc1)CCN1CCCC1 [PW276, N-(3,3-diphenylallyl)-4-fluoro-N-(2-(pyrrolidin-1-yl)ethyl)benzamide]	Yes	4.8 µM	0.572				
COc1cc(C(=CCN(CCN2CCCC2)[C@H](C)c2ccc(F)cc2)c2cc(OC)c(OC)c(OC)c2)cc(OC)c1OC [PW358, (R)-N-(1-(4-Fluorophenyl)ethyl)-N-(2-(pyrrolidin-1-yl)ethyl)-3,3-bis(3,4,5-trimethoxyphenyl)prop-2-en-1-amine]	Yes	1.02 µM	0.938				
CN1CCN(CCN(CC=C(c2ccccc2)c2ccccc2)[C@@H]2CCc3ccccc32)CC1 [NY0369b, (R)-N-(3,3-diphenylallyl)-N-(2-(4-methylpiperazin-1-yl)ethyl)-2,3-dihydro-1H-inden-1-amine]	Yes	90.1 µM	0.866				
C=CCN(CC=C(c1ccccc1)c1ccccc1)[C@H](C)c1ccc(OC)cc1 [NY0217, (R)-N-allyl-N-(1-(4-methoxyphenyl)ethyl)-3,3-diphenylprop-2-en-1-amine]	No	13 µM	0.47				
